Test results from patent US20230038480A1, “SYSTEM FOR PRODUCITON OF HIGH YIELD OF RECOMBINANT PROTEINS” (UNIVERSITY OF MARYLAND, COLLEGE PARK, priority 2021, published 2023).

Tests used:
E. coli pAHL-GMCSF = assay: AHL-induced porin formation and release of dsRedExpressII from E. coli pAHL-GMCSF; type: cell-based, Escherichia coli; conditions: about
Protocol: Protein secretion analysis. The target proteins DsRedExpress2 and GMCSF were analyzed. The supernatants of sample aliquots were recovered after centrifugation (6000 g, 2 min) to separate bacteria and subdivided fluorescence analysis (stored chilled) or immunoassaying (stored frozen). The relative fluorescence intensity of samples was measured using a BioTek Synergy platereader to determine DsRedExpress2 levels; additional quantification to correlate fluorescence to protein concentration was performed using a Bioanalyzer 2100 (Agilent Technologies, Santa Clara, Calif.). The His-tagged GMCSF peptide was quantified using a His Tag ELISA Detection Kit (GenScript) according to the provided protocol and 5-10 fold dilutions of frozen samples.

| Compound | inducer concentration in solution (E. coli pAHL-GMCSF) | peroxide tolerated with negligible effect on cell viability (E. coli) | benign induction range (E. coli; in agreement with previous reports) [µM] | induction threshold required to achieve saturated protein expression (OxyR / PoxyS promoter) [µM] |
| --- | --- | --- | --- | --- |
| CCCCCCCCCC(=O)CC(=O)N[C@H]1CCOC1=O [AHL, N-3-oxo-dodecanoyl-L-Homoserine lactone] | 100-500 nM of AHL |  |  |  |
| OO [peroxide, hydrogen peroxide] |  | up to 100 μM | 0 to 100 | 25 |
